In series [1] the target is T1, bovine serum albumin (BSA) (Bos taurus, UniProt P02769).
T1 construct: purchased
The series is described as follows: Spectrofluorometric titration of BSA (fluorescence quenching, double log Stern–Volmer, van't Hoff). In kind it is binding. Conditions: for ΔHb / ΔSb: van't Hoff over three temperatures. On the procedure:
(§1) The protein binding affinity of obtained compounds was analyzed by the spectrofluorometric titration of BSA and HSA solution by the solution containing obtained compounds. The mixture was irradiated by light with a wavelength of 295 (BSA) and 280 nm (HSA). Both proteins contain fluorescent amino acids within active pockets, and the binding process can be monitored through the change in intensity and position of the emitted light maxima. The fluorescent emission depends on the chemical environment of amino acids. The measurements for each complex were repeated at three temperatures to allow the determination of the thermodynamic parameters of binding.
(§2) The spectrofluorometric measurements were used to investigate the binding process of obtained compounds towards bovine serum albumin (BSA) and human serum albumin (HSA) on the Cary Eclipse MY2048CH03 instrument. The scan rate was 600 nm min^−1, and both slits were 5 nm. The excitation wavelengths were 295 nm and 280 nm for BSA and HSA, respectively. These energies are characteristics of the protein structure’s tryptophan and other fluorescent amino acid residues. The emission spectra were recorded between 310 and 500 nm. The concentration of proteins was held constant at 5 × 10^−6 M in […] phosphate buffer saline (pH = 7.4). The concentration of complexes changed from 1 to 10 × 10^−6 M, and the emission spectrum was recorded two minutes after the addition of compounds. The data were analyzed by the double log Stern–Volmer quenching equation (Equation (2)):(2) logI0−I/I=logKb+nlogQ
In the previous equation, I0 and I are the fluorescent emission intensities of BSA/HSA without and with added metal complexes, respectively; Kb is the binding constant; n is the number of binding places; and [Q] is the concentration of quenchers (metal complexes). […]

In series [2] the target is T2, human serum albumin (HSA) (Homo sapiens, UniProt P02768).
T2 construct: purchased
Put plainly: Spectrofluorometric titration of HSA (fluorescence quenching, double log Stern–Volmer, van't Hoff). In kind it is binding. Conditions: for ΔHb / ΔSb: van't Hoff over three temperatures. On the procedure: as §1
The binding affinity of obtained complexes was also examined towards HSA as a transport protein relevant to the human body. The temperature range was changed to reflect better temperatures common for humans (32–42 °C). The representative example of the HAS fluorescence measurements is shown in Figure 9, along with van’t Hoff’s plot. The decrease in the fluorescence intensity emission was also dependent on the concentration of complexes. On average, the binding constants were similar to the ones calculated for BSA. […] High correlation coefficients, between 0.990 and 0.998, were calculated for the dependency described by Equation (2). The number of binding places is 1, proving that the same type of complexes were formed between investigated compounds and HAS as previously shown for BSA.
as §2
In the previous equation, I0 and I are the fluorescent emission intensities of BSA/HSA without and with added metal complexes, respectively; Kb is the binding constant; n is the number of binding places; and [Q] is the concentration of quenchers (metal complexes).
The changes in enthalpy and entropy of the binding process were determined from the vant’t Hoff equation (Equation (3)) following the measurements at three temperatures (27, 32, and 37 °C):(3) lnKb=−∆Hb/RT+∆Sb/R

The subject of series [3] is HCT116 colorectal carcinoma. Put plainly: MTT viability assay, HCT116. Conditions: 72 h of treatment. The series is classed as cell-based, human. Here is the method: (§3) The following cell lines were used in this study: human cell lines (A375 melanoma, MCF-7 breast cancer, HCT116 colorectal carcinoma, and A2780 ovarian cancer. These cell lines were purchased from the American Type Culture Collection (Rockville, MD, USA). The A2780 cells were cultivated in DMEM, while all other cell lines were cultivated in the HEPES-buffered RPMI-1640 medium. The cell culture mediums were supplemented with penicillin (1000 units/mL), streptomycin (100 µg/mL), and 10% inactivated FBS. All cells were cultivated at 37 °C in a humidified atmosphere with 5% CO2.
(§4) Two colorimetric viability assays were applied, namely 3-(4,5-dimethylthiazol-2-yl)-2,5-diphenyl-2H-tetrazolium bromide (MTT) and crystal-violet (CV) (Sigma Aldrich, St. Louis, MO, USA), according to the previous studies. The cells were seeded overnight in 96-well plates: A2780 and MRC-5 8 × 10^3 cells/well, HCT 116 6 × 10^3 cells/well, A375 5 × 10^3 cells/well, and MCF-7 at 10 × 10^3 cells/well [67]. The standard solutions of complexes were prepared in DMSO. All cells were treated with the following concentrations of investigated compounds: 100, 50, 25, 12.5, 6.25, 3.125, and 1.56 µM. After 72 h of treatment, viability assays were conducted. For the CV assay, cells were fixed using 4% paraformaldehyde (PFA) for 20 min at room temperature after being washed once with PBS. Afterward, they were stained with 0.2% CV solution for 25 min. This procedure was followed by washing with double distilled water. The cells were left to dry overnight at room temperature. In the last step, 33% acetic acid was used to dissolve the remaining dye. The other test included incubating cells in MTT solution (0.5 mg L^−1 in cell culture medium) for […] at 37 °C in a humid environment with 5% CO2. After one hour, the MTT solution was discarded, and the formed formazan was dissolved using DMSO. A plate reader (Spectromax, Molecular Devices, San Jose, CA, USA) was utilized for the absorption measurements at 570 and 670 (background) nm. The cell viability was calculated as the percentage compared to untreated cells, and the mean was obtained using a four-parametric logistic function. Each of the three independent experiments was performed in quadruplicate.
Background: Tetrazolium assays rely on reduction of a dye to a coloured formazan, in cell work by metabolically active cells.

Series [4] concerns HCT116 colorectal carcinoma. The series is described as follows: CV (crystal-violet) viability assay, HCT116. In kind it is cell-based, human. Conditions: 72 h of treatment. Here is the method:
as §3, §4

The subject of series [5] is A375 melanoma. The series is described as follows: MTT viability assay, A375. In kind it is cell-based, human. Conditions: 72 h of treatment. On the procedure: as §3
as §4, with “After one hour, the MTT solution was discarded, and the formed formazan was dissolved using DMSO.” left out, “Each of the three independent experiments was performed in quadruplicate.” left out

Series [6] concerns A375 melanoma. The series is described as follows: CV (crystal-violet) viability assay, A375. Conditions: 72 h of treatment. The series is classed as cell-based, human. Here is the method:
as §3
as §4, with “After one hour, the MTT solution was discarded, and the formed formazan was dissolved using DMSO.” left out, “Each of the three independent experiments was performed in quadruplicate.” left out

Series [7] deals with MCF-7 breast cancer. The series is described as follows: MTT viability assay, MCF-7. The series is classed as cell-based, human. Conditions: MCF-7, MTT, 72 h of treatment. On the procedure: as §3, §4
In series [8] the test system is MCF-7 breast cancer. The series is described as follows: CV (crystal-violet) viability assay, MCF-7. Conditions: MCF-7, CV, 72 h of treatment. The series is classed as cell-based, human. Here is the method: as §3, §4
The test system of series [9] is A2780 ovarian cancer. The series is described as follows: MTT viability assay, A2780. In kind it is cell-based, human. Conditions: 72 h of treatment. Here is the method: as §3, §4
Series [10] concerns A2780 ovarian cancer. The series is described as follows: CV (crystal-violet) viability assay, A2780. The series is classed as cell-based, human. Conditions: 72 h of treatment. On the procedure:
as §3, §4

A short description of series [11]: Qualitative solubility in solvents. In kind it is physicochemical.
[12] abbreviates: in chloroform, dimethylsulfoxide, dimethylformamide, acetone, and acetonitrile.
Where [13] appears, read: in methanol, ethanol, phosphate buffer saline, and water.

T1 sequence (P02769 25-607): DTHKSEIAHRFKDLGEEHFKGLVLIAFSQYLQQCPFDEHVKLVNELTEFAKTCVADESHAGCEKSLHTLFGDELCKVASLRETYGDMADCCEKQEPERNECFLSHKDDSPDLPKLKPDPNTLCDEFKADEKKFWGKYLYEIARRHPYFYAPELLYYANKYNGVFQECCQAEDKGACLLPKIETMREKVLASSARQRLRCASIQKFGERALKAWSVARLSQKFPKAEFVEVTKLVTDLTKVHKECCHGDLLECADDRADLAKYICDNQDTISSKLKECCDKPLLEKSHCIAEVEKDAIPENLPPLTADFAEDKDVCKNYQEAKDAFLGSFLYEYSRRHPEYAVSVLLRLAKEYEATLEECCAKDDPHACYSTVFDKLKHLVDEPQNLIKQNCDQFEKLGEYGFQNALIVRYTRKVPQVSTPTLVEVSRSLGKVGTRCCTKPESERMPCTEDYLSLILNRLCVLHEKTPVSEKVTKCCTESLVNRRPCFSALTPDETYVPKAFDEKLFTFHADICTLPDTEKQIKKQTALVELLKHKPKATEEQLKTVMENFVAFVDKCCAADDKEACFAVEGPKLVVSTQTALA
T2 sequence (P02768 25-609): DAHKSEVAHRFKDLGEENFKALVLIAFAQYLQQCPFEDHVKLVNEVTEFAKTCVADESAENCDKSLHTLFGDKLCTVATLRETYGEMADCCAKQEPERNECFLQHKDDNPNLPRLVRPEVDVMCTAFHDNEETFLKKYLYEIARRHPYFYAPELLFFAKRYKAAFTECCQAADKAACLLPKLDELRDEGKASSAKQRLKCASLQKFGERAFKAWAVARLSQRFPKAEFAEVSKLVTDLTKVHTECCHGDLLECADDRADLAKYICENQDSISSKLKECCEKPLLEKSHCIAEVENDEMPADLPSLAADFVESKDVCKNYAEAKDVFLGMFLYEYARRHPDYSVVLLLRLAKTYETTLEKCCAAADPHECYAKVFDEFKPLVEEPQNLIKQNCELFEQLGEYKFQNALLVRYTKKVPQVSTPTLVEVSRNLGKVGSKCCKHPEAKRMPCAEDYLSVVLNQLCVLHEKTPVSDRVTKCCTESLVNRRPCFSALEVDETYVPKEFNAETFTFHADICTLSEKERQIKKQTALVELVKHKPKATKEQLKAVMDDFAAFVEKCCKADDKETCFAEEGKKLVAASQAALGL

Consider [Fe(PLAG)2]SO4^.2H2O [Fe-PLAG], for which the “Kb (binding constant)” value in series [1] (27 °C) was determined as 31800 M⁻¹; in series [1] (32 °C) it was 83200 M⁻¹; in series [1] (35 °C) it was 234000 M⁻¹. Further, the “n (number of binding places)” value in series [1] (27 °C) is given as 1.12; in series [1] (32 °C), 1.10; in [1] (35 °C), 1.04; in series [2] (32 °C), 1.09; in series [2] (37 °C) it was 0.90; in series [2] (42 °C), 1.12. Besides, the ΔGb is -6.171 kcal/mol in [1] (27 °C); -6.888 kcal/mol in series [1] (32 °C); -7.605 kcal/mol in series [1] (35 °C); -5.081 kcal/mol in series [2] (32 °C); -6.647 kcal/mol in [2] (37 °C); -8.212 kcal/mol in series [2] (42 °C). The ΔHb came to 36.898 kcal/mol in [1] and 90.411 kcal/mol in series [2]. For the same compound, the ΔSb in series [1] is on record as 600.66 J mol^−1 K^−1; in series [2], 1309.95 J mol^−1 K^−1. Further, the IC50 in series [3], in [4], in [5], in series [6], in series [7] and in series [8] was more than 100 µM each time. Moreover, the IC50 in [9] and in [10] was more than 100 µM each time. For the same compound, the solubility entry was “soluble” in series [11] (setting [12]); “insoluble” in series [11] (in diethyl ether and toluene); “moderately soluble” in [11] (setting [13]).

Turning to `Cc1ncc(CO)c(/C=N/N=C(N)N)c1O` [PLAG, Pyridoxylidene-aminoguanidine], the solubility result is “soluble” in series [11] (in MeOH and DMF); “insoluble” in series [11] (in diethyl ether and toluene); “moderately soluble” in series [11] (in methanol, ethanol, and water).

As for [Zn(PLAG)(SO4)(H2O)]^.H2O [Zn-PLAG], the “Kb (binding constant)” value came out at 58000 M⁻¹ in [1] (27 °C), 124000 M⁻¹ in series [1] (32 °C) and 208000 M⁻¹ in [1] (35 °C). In addition, the “n (number of binding places)” value in series [1] (27 °C) is on record as 1.13; in series [1] (32 °C), 1.09; in series [1] (35 °C), 1.03; in series [2] (32 °C) it was 1.11; in series [2] (37 °C) it was 0.99; in [2] (42 °C), 0.95. For the same compound, the ΔGb in series [1] (27 °C) was -6.561 kcal/mol; in series [1] (32 °C), -7.065 kcal/mol; in [1] (35 °C), -7.567 kcal/mol; in [2] (32 °C), -6.848 kcal/mol; in series [2] (37 °C) it was -6.898 kcal/mol; in series [2] (42 °C), -6.948 kcal/mol. In series [1], this compound gave a ΔHb of 23.61 kcal/mol. The same compound came in with a ΔSb in series [1] of 420.77 J mol^−1 K^−1. Moreover, the IC50 in series [3], in [4], in [5], in series [6], in series [7] and in series [8] was more than 100 µM each time. Besides, the IC50 in series [9] and in series [10] was more than 100 µM throughout. For the same compound, the solubility entry in series [11] (setting [12]) is “soluble”; in [11] (in diethyl ether and toluene), “insoluble”; in [11] (setting [13]) it was “moderately soluble”.

For the compound Cu(PLAG)(NCS)2 [Cu-PLAG], the “Kb (binding constant)” value is 9630 M⁻¹ in [1] (27 °C), 89700 M⁻¹ in series [1] (32 °C) and 1.82e+06 M⁻¹ in [1] (35 °C). The “n (number of binding places)” value amounted to 1.13 in series [1] (27 °C); 1.10 in series [1] (32 °C); 0.98 in [1] (35 °C); 0.91 in [2] (32 °C); 0.90 in series [2] (37 °C); 0.98 in series [2] (42 °C). Besides, the ΔGb in series [1] (27 °C) is -5.382 kcal/mol; in series [1] (32 °C), -7.087 kcal/mol; in series [1] (35 °C), -8.788 kcal/mol; in series [2] (32 °C), -5.37 kcal/mol; in series [2] (37 °C), -5.961 kcal/mol; in [2] (42 °C), -6.554 kcal/mol. Besides, the results for the ΔHb in series [1] and in series [2] were 96.793 kcal/mol and 30.727 kcal/mol, respectively. The ΔSb in series [1] is on record as 1425.02 J mol^−1 K^−1; in series [2] it was 495.17 J mol^−1 K^−1. The IC50 (usually the concentration that gives 50% inhibition) in series [3] is 81.5 ± 0.1 µM; in [4], 97.4 ± 3.7 µM; in series [7], 48.3 ± 1.5 µM; in [8] it was 65.4 ± 4.8 µM; in series [9] it was 32.5 ± 2.6 µM; in series [10], 38.5 ± 2.1 µM. Besides, the solubility result is “soluble” in [11] (setting [12]); “insoluble” in [11] (in diethyl ether and toluene); “moderately soluble” in [11] (setting [13]).
